Reference: article PMC12474259, “ITF6475, a New Histone Deacetylase 6 Inhibitor, Prevents Painful Neuropathy Induced by Paclitaxel” (Toxics, 2025)
Like-named read-outs stand apart in the source and are kept apart here.

Assays:
C57BL/6 female mice [1] = experiment: General toxicity: mortality, health, body weight, histopathology; type: in vivo; conditions: for mortality: ITF6475 all doses p.o. daily
Method: In the days of co-treatment, ricolinostat and all doses of ITF were administered 4 h before PTX. The animals were housed in a certified and limited-access facility with controlled temperature (22 °C ± 2) and humidity (50% ± 20) and an artificial 12 h:12 h light cycle from 7 a.m. to 7 p.m. Mice were monitored daily to evaluate the mortality and their health, and body weight was measured twice a week during the treatment period in order to monitor general conditions and to adjust the dose.
(§1) At baseline and at the end of treatment, neurophysiological evaluations and dynamic tests were performed (Figure 1). Baseline neurophysiological results were used to randomize the animals into the 6 groups to ensure homogeneity. At the end of treatment, the animals were sacrificed by isoflurane overdose, caudal nerves, liver, spleen, thymus, kidneys, and sternum were used for histopathological analysis, and skin biopsies for intraepidermal nerve fiber (IENF) density analysis were collected. At the end of the study, blood was collected from the tail vein under isoflurane anesthesia into 1.5 mL Eppendorf tubes, centrifuged at 3500× g for 10 min at 4 °C, and then serum was transferred into a new tube and stored at –80 °C until examined for neurofilament light (NfL) level analysis.
Liver, spleen, thymus, kidneys, and sternum were collected and fixed in 10% buffered formalin at room temperature for 4 days. After fixation, the sternum was decalcified for 48 h at room temperature in 10% buffered EDTA. After trimming, these samples were paraffin-embedded, cut into 3 µm thick sections, stained with hematoxylin–eosin, and examined with an Olympus BX51 light microscope (Olympus, Segrate, Italy).

C57BL/6 female mice [2] = type: in vivo; conditions: end of treatment, PTX + ACY 50 mg/kg p.o. daily, p < 0.01
Method: (§2) C57BL/6 female mice (Inotiv, Udine, Italy) were used and randomized into six different groups (19 mice/group): one group was treated with PTX vehicle i.v., 1 time/week for 4 weeks and methocel 0.5% os, daily (VEH group); a second group was treated with PTX, i.v., 70 mg/kg 1 time/week for 4 weeks (PTX group); and the other four groups were treated with PTX, i.v., 70 mg/kg 1 time/week for 4 weeks and co-treated with ricolinostat, p.o., 50 mg/kg daily (PTX + ACY group), or with ITF6475, p.o., 1–6–12.5 mg/kg daily, p.o., (PTX + ITF1, PTX + ITF6, PTX + ITF12.5 groups), respectively (Figure 1). In the days of co-treatment, ricolinostat and all doses of ITF were administered 4 h before PTX. […] Mice were monitored daily to evaluate the mortality and their health, and body weight was measured twice a week during the treatment period in order to monitor general conditions and to adjust the dose.
To evaluate the IENF density, glabrous skin punches from the plantar hind paw were fixed in paraformaldehyde-lysine and periodate sodium (PLP) 2%, cryoprotected and serially cut in 20 μm thick sections. […] The total number of PGP 9.5-positive IENF crossing the dermal-epidermal junction was counted by a blinded examiner (ACh) under a light microscope at 40× magnification (Nexcope Ne920 AUTO light microscope, TiEsseLab Srl, Milano, Italy). […]

C57BL/6 female mice [3] = type: in vivo; conditions: PTX + ricolinostat 50 mg/kg p.o. daily
Method: as §2
The onset of PIPN was assessed by evaluating the sensory nerve conduction velocity (NCV) and nerve action potential amplitude (SNAP) of caudal and digital nerves using the electromyography apparatus (Matrix Light, Micromed, Treviso, Italy). […] Latencies were measured from stimulus onset, and peak-to-peak amplitudes were calculated. The NCV was calculated considering the measured distance between the recording and the stimulating negative electrode divided by the latency. […]

[4] = tested on: neurofilament light (NfL); experiment: Serum neurofilament light (NfL) analysis in PIPN model; type: in vivo, mouse; conditions: end of treatment
Method: as §1
Serum NfL concentrations were measured using an automated chemiluminescent enzyme immunoassay instrument LUMIPULSE G600 (LUMIPULSE G NfL Blood kit, Fujirebio, Pomezia, Italy). The concentration was expressed in pg/mL [27, 30, 31].

[5] = Pharmacokinetic assessment in mouse plasma (LC-MS/MS); type: in vivo; conditions: for Cmax / AUC(0-t): oral; for AUC(0-t): read-out: AUC0–8h
Method: For the determination of ITF6475 in mouse plasma (n. 3 mice/group), aliquots of 20 µL of samples were deproteinized by adding 300 µL of acetonitrile. After centrifugation, 100 µL of the supernatant was collected from each sample and allowed to dry in a nitrogen flow at 35 °C. The residue was then reconstituted in 150 µL of the mixture in 90% water/10% acetonitrile and 0.1% formic acid.
Quantification of ITF6475 in the samples was carried out on a calibration curve in the range 1–1000 ng/mL. Quantification of Ricolinostat in mouse plasma was carried out on aliquots of 20 µL and deproteinized with 200 µL of acetonitrile. Aliquots of 100 µL of the supernatant were collected and diluted with 100 µL of the mixture in 90% water/10% acetonitrile and 0.1% formic acid. The calibration curve range was 1–1000 ng/mL.
Samples were analyzed in an LC-MS/MS system, constituted by a Prominence Shimadzu HPLC (Shimadzu Italia S.r.l., Milano, Italy) and an API6500+ triple quadrupole mass spectrometer equipped with TurboIonSpray (Sciex, Milano, Italy). Analyses were carried out in a positive mode. The system was managed through the software Analyst 1.7.2 (Sciex, Milano, Italy).

[6] = general statement on hydroxamic acids, no reference given; cited from earlier work
C57BL/6 female mice [7] = experiment: Neuropathology, morphological analysis of caudal nerves; type: in vivo, mouse; conditions: end of treatment, PTX alone or in combination
Method: Caudal nerves were isolated for morphological analysis and processed as previously described, separating the proximal and the distal portions to obtain a better evaluation of the distal-to-proximal extension of the damage. Briefly, the caudal and sciatic nerves were immersion-fixed in 3% glutaraldehyde and were subsequently osmicated, dehydrated, and embedded in epoxy resin. Semithin sections of 1.5 μm thickness were prepared from at least three tissue blocks for each animal, stained with toluidine blue, and examined with a Nexcope Ne920 AUTO light microscope (TiEsseLab Srl, Milano, Italy).

[8] = 4 weeks, PTX 70 mg/kg i.v. 1 time/week, ricolinostat 50 mg/kg p.o. daily

| SMILES | tolerability (C57BL/6 female mice [1]; 4 weeks, PTX 70 mg/kg i.v. 1 time/week, ricolinostat 50 mg/kg p.o. daily, ITF6475 1–6–12.5 mg/kg p.o. daily (all doses)) | mortality (C57BL/6 female mice [1]; [8]) | body weight vs. VEH (C57BL/6 female mice [1]; PTX alone or in combination with ricolinostat 50 mg/kg or all doses of ITF) | relevant toxicity (C57BL/6 female mice [1]; co-treated mice, ricolinostat 50 mg/kg or ITF6475 1–12.5 mg/kg p.o. daily with PTX) | histopathology of thymus and spleen (C57BL/6 female mice [1]; end of treatment, PTX alone or in combination with ricolinostat or ITF6475) | IENF density vs. VEH (C57BL/6 female mice [2]) | protection of PTX-induced reduction in digital nerve SNAP (C57BL/6 female mice [3]) | serum NfL vs. VEH ([4]; PTX + ACY 50 mg/kg p.o. daily, p < 0.05) | AUC increase with dosage [5] | Cmax ([5]; 25 mg/kg, dose 25 mpk) | AUC(0-t) ([5]; 25 mg/kg, dose 25 mpk) | Cmax ([5]; 100 mg/kg, dose 100 mpk) | AUC(0-t) ([5]; 100 mg/kg, dose 100 mpk) | Cmax ([5]; 200 mg/kg, dose 200 mpk) | AUC(0-t) ([5]; 200 mg/kg, dose 200 mpk) | protein binding (in words) [6] | mice with mild, diffuse hepatic lipidosis (C57BL/6 female mice [1]; female, C57BL/6, mouse, in vivo, 4 weeks) | morphology of distal caudal nerves (C57BL/6 female mice [7]) | morphology of proximal caudal nerves (C57BL/6 female mice [7]) | serum NfL vs. VEH ([4]; PTX 70 mg/kg i.v. alone, p < 0.001) |
| --- | --- | --- | --- | --- | --- | --- | --- | --- | --- | --- | --- | --- | --- | --- | --- | --- | --- | --- | --- | --- |
| O=C(CCCCCCNC(=O)c1cnc(N(c2ccccc2)c2ccccc2)nc1)NO [ricolinostat] | well tolerated | no mortality was observed | statistically significant increase in body weight | no evidence of relevant toxicity | thymic and splenic hypoplasia associated with reactive extramedullary ectopic hematopoiesis | statistically significant reduction | significant protection of reduction in digital nerve SNAP | statistically significant difference | increase non-linearly at doses above 25 mg/kg | 33.7 ng/mL | 124 ng·h/mL | 29.8 ng/mL | 171 ng·h/mL | 33.9 ng/mL | 234 ng·h/mL | not heavily protein-bound | – | – | – | – |
| CC(=O)O[C@H]1C(=O)[C@@]2(C)[C@H]([C@H](OC(=O)c3ccccc3)[C@]3(O)C[C@H](OC(=O)[C@H](O)[C@@H](NC(=O)c4ccccc4)c4ccccc4)C(C)=C1C3(C)C)[C@]1(OC(C)=O)CO[C@@H]1C[C@@H]2O [PTX, paclitaxel] | – | no mortality was observed | – | – | – | – | – | – | – | – | – | – | – | – | – | – | approximately 25% | even more severe axonopathy | severe axonopathy with numerous degenerated fibers | statistically significant difference |
